Laboratory results from patent US6544994B2, “Pharmaceutical preparation for treating or preventing cardiovascular or neurological disorders by modulating of the activity of nitric oxide synthase” (Eprov AG, priority 2000, dated 2003).
Like-named read-outs stand apart in the source and are kept apart here. Values belong to the compound of their own block, whether it stands above or below them.

Tests used:
[1] = target: xanthine oxidase (XO) (Homo sapiens, UniProt P47989)
Text: Assessment of urate levels (assessed with a uricase-hydrogen peroxide assay) is a standard method to determine enzymatic activity of XO. However, reductive substance, like vitamin C or NUHF, are known to interfere with the urate determination.

[2] = Competitive superoxide trapping (CST) with DEPMPO in HX/XO system, EPR; type: biochemical; settings: for k/kd, reaction rate with superoxide relative to reference spin trap DEPMPO / k, reaction rate with superoxide: pH 7.4, 37° C.; for k, reaction rate with superoxide: based on kd=80 (Ms)^−1; for superoxide scavenging, times less potent/slower than ascorbic acid: relative to ascorbic acid
Protocol: The EPR spectra were recorded at 37° C. on a modified Bruker ESP 300. Spin trap experiments were performed with both HX/XO and eNOS. For HX/XO the solution contained 0.5 mM hypoxanthine, 12.5 mU/ml xanthine oxidase and 50 mM DEPMPO in phosphate buffer (pH 7.4). The eNOS assay contained 250 nM eNOS dimers (0.065 mg protein/ml), 0.5 mM NADPH, 10 μM L-arginine, 1 mM CaCl2, 300 U/ml catmodulin and 50 mM DEPMPO in phosphate buffer (pH 7.4).
The reaction rates with superoxide are given by k for the tested substance and kd for the reference compound DEPMPO respectively.

[3] = target: T1, eNOS (Bos taurus, UniProt P29473); test: NO-production by eNOS, [3H]arginine to [3H]citrulline conversion; type: biochemical, bovine; parameters: made in house; host or cells: E. coli; settings: 100 μM final
Protocol: 5-methyl-(6 S)-tetrahydrofolic acid, and its stereoisomer, 5-methyl-(6R)-tetrahydrofolic acid were used in purities>99.8%. The spin trap, 5-diethoxy-phosphoryl-5-methyl-1-pyrroline-N-oxide (DEPMPO) and all other used chemicals are commercially available.
NOS activity was determined by quantifying the conversion of L-[2,3,4.5-^3H]arginine into L-[2,3,4,5-^3H]-citrulline. […] All measurements were performed in triplicate. After correction for nonspecific activity, eNOS activity was calculated from the percent conversion of [^3H]-arginine into [^3H]-citrulline and expressed as nmoles per mg protein per min.

[4] = target: T1, eNOS; test: Superoxide production by eNOS, DEPMPO spin trap EPR
[5] = tested on: microvascular endothelial bEND3 cells; test: NO production by endothelial cells, nitrite content in supernatant; type: cell-based; settings: preincubation 24 hours; for acetylcholine-induced nitrite production: 5-methyltetrahydrofolic acid 1 and 10 μM, sepiapterin 100 μM, p<0.05 vs. saline
Protocol: The NO production by endothelial cells was assessed by quantification of the nitrite content in the supernatant with a commercially available fluorimetric kit (Cayman Chemicals). Acetylcholine-induced NO production is presented as the difference between stimulated minus the unstimulated nitrite content.

[6] = cited from earlier work
[7] = cited from earlier work; remark: listed apart in the source
[8] = pterin-repleted eNOS, p<0.05 vs. BH4 alone

xanthine oxidase (XO), sequence (P47989 whole entry, species assumed): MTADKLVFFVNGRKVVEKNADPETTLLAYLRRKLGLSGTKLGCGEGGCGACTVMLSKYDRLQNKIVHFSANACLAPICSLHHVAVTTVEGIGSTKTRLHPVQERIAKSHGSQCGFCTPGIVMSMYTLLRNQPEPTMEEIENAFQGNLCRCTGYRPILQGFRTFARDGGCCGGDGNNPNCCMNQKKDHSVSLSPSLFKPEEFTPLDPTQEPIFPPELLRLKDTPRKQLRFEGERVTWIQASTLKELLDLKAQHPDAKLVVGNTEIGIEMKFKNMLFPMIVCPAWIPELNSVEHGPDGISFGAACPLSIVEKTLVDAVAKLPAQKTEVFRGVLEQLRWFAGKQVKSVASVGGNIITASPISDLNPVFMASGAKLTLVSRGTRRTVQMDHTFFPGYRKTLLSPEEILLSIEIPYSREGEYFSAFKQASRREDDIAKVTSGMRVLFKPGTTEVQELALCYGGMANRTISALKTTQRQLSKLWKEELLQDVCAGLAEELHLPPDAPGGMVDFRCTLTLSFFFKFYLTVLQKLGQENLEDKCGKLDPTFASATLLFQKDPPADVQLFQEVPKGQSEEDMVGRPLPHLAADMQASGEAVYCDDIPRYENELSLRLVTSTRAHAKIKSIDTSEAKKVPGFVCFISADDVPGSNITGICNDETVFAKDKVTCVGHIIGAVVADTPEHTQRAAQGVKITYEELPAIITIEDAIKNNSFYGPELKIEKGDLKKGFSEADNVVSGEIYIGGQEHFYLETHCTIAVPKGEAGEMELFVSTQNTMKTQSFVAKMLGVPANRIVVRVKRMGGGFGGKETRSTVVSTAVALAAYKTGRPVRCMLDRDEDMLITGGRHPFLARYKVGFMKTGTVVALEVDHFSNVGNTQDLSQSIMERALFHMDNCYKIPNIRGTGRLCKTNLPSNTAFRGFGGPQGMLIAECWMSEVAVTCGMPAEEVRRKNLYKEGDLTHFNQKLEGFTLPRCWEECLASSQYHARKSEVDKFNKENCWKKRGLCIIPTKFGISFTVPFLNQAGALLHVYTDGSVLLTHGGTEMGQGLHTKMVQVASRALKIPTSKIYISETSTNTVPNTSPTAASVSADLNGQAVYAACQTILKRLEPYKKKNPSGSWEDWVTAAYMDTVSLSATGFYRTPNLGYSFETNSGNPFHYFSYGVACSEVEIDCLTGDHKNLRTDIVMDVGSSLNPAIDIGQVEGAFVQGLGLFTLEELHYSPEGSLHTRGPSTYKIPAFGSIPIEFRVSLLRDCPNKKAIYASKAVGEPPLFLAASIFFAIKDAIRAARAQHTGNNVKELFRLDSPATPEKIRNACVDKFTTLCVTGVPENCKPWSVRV

urate level after 60 minutes of incubation ([1]; 50 μM added at the beginning of the incubation, basal 128±20 μM): 48.7 ± 1.7 µM | urate level after 60 minutes of incubation ([1]; 50 μM added at the end of the incubation, just prior to urate assessment): 49.9 ± 1.9 µM | k/kd, reaction rate with superoxide relative to reference spin trap DEPMPO ([2]; HX/XO): about 175 | k/kd, reaction rate with superoxide relative to reference spin trap DEPMPO ([2]; HX/XO, listed as L-MTHF): 150 | NO production ([3]; pterin-free eNOS): no significant effect on NO production | NO production [3, 8]: significant increase in NO production
SMILES: CN1c2c(nc(N)[nH]c2=O)NC[C@@H]1CNc1ccc(C(=O)N[C@@H](CCC(=O)O)C(=O)O)cc1 [5-methyl-(6 S)-tetrahydrofolic acid]
k, reaction rate with superoxide [2]: 12000 M/s | superoxide scavenging, times less potent/slower than ascorbic acid [2]: about 20 fold | effect on rate of superoxide production by pterin-free eNOS ([4]; pterin-free eNOS): does not affect the rate of superoxide production | radical adduct formation ([4]; pterin-free eNOS, 25 μM): does not cause significant changes in radical adduct formation | rate of DEPMPO adduct formation ([4]; pterin-repleted eNOS): very strong reduction in the rate of DEPMPO adduct formation | acetylcholine-induced nitrite production [5]: significant-further increase in acetylcholine-induced nitrite production

k/kd, reaction rate with superoxide relative to reference spin trap DEPMPO ([2]; HX/XO): about 175 | k/kd, reaction rate with superoxide relative to reference spin trap DEPMPO ([2]; HX/XO, listed as D-MTHF): 150 | NO production ([3]; pterin-free eNOS): no significant effect on NO production | NO production [3, 8]: significant increase in NO production
SMILES: CN1c2c(nc(N)[nH]c2=O)NC[C@H]1CNc1ccc(C(=O)N[C@@H](CCC(=O)O)C(=O)O)cc1 [5-methyl-(6R)-tetrahydrofolic acid]
k, reaction rate with superoxide [2]: 12000 M/s | superoxide scavenging, times less potent/slower than ascorbic acid [2]: about 20 fold | effect on rate of superoxide production by pterin-free eNOS ([4]; pterin-free eNOS): does not affect the rate of superoxide production | rate of DEPMPO adduct formation ([4]; pterin-repleted eNOS): very strong reduction in the rate of DEPMPO adduct formation

SMILES: CN1c2c(nc(N)[nH]c2=O)NCC1CNc1ccc(C(=O)N[C@@H](CCC(=O)O)C(=O)O)cc1 (stereo partly shown) [5-methyltetrahydrofolic acid, 5-methyl-5,6,7,8-tetrahydrofolic acid]
systemic plasma concentrations of 5-methyltetrahydrofolic acid ([6]; intra-arterial infusion): 250 nM | effect on rate of urate production by XO [1]: does not affect the rate of urate production | superoxide scavenging, times less potent/slower than ascorbic acid [2]: about 20 fold | amount of superoxide adducts ([4]; partially BH4-repleted eNOS, 25 μM): substantial reduction in the amount of superoxide adducts | factor by which superoxide production by eNOS is reduced ([4]; pterin-repleted eNOS, 50 μM, estimated from figure): 2 fold | nitrite release ([5]; unstimulated endothelial cells): did not affect nitrite release

SMILES: N=C(N)NCCC[C@H](N)C(=O)O [arginine, L-arginine]
k/kd, reaction rate with superoxide relative to reference spin trap DEPMPO ([2]; HX/XO): < 10^−2 | effect on formation of DEPMPO adducts ([2]; HX/XO, up to 100 mM): did not affect the formation of DEPMPO adducts | k, reaction rate with superoxide [2]: neglibile

k/kd, reaction rate with superoxide relative to reference spin trap DEPMPO ([2]; HX/XO): 4400
SMILES: O=C1O[C@H]([C@@H](O)CO)C(O)=C1O [ascorbic acid, reference compound]
k, reaction rate with superoxide [2]: 350000 M/s | k, reaction rate with superoxide, literature value [7]: 270000 M/s

SMILES: Nc1nc2ncc(CNc3ccc(C(=O)N[C@@H](CCC(=O)O)C(=O)O)cc3)nc2c(=O)[nH]1 [folic acid, reference compound]
systemic plasma concentrations of 5-methyltetrahydrofolic acid ([6]; standard oral suppletion of folic acid 5 mg p.o.): ≤ 150 nM

SMILES: C[C@H](O)C(=O)C1=Nc2c(nc(N)[nH]c2=O)NC1 [sepiapterin, reference compound]
acetylcholine-induced nitrite production [5]: significant-further increase in acetylcholine-induced nitrite production
